Measurements from patent publication US7470442B2, “Confectionary compositions with magnolia bark extract” (GIC Innovations Company, priority 2005, dated 2008).
≈ marks a conversion by molar mass, not a printed value.

Columns and labels:
Type in all cases: cell-based
incubated saliva = assay: MIC of surface active agents and emulsifiers on incubated saliva, two-fold serial dilution; settings: for germ-kill efficacy in words: summary of Table 9; for MIC (ppm) / MIC: 24 hours at 37° C.
Protocol: (§1) To evaluate the germ-kill efficacy and synergist effect when two or more germ-kill actives are combined, testing was performed to determine the ratio of MBE to surface active agent. The germ-kill active and/or surface active agent were dissolved in ethanol or sterile water to give an initial concentration 0.1% to 1%. The solution was diluted with a nutrient broth to give an initial concentration of 0.05% to 0.5%, which was then serially diluted two-fold so that each subsequent dilution contained 50% of the compound concentration of the previous dilution while maintaining a constant level of nutrients for each dilution. These dilutions were inoculated with representative oral microorganisms, or incubated saliva, and incubated for 24 hours at 37° C. For each surface active agent, the lowest dilution that was not turbid was registered as the MIC. The MBC was determined by transferring 10 microliter of liquid from non-turbid tubes to fresh growth media and incubated for 48 hours.

Fusobacterium nucleatum [1] = assay: Minimum-Inhibitory-Concentrations (MIC) study, 96-well microtiter plates; settings: 48 hours, 37° C., turbidity at 660 nm
Protocol: (§2) To evaluate the effectiveness of Magnolia Bark Extract, in vitro tests were conducted with three subgingival plaque bacteria associated with oral malodor. The Minimum-Inhibitory-Concentrations (MIC) study protocol is as follows. Chlorhexidine was used as a positive control and sterile water was used as a negative control. Menthol and Tween 80 was used as a solvent for Magnolia Bark Extract. Tween 80 is the common name for Polysorbate 80. Ninety-six-well microtiter plates were used for this study. Each well contained 5×10^5 colony forming units/ml of bacteria, serially diluted agents and bacterial growth medium. All bacterial cultures were incubated at 37° C. and stationary. Bacterial growth was estimated spectrophotometrically at 660 nm, after 48 hours.

Porphyromonas gingivalis [2] = assay: as above; settings: 48 hours, 37° C., turbidity at 660 nm
Protocol: as §2

Streptococcus mutans [3] = assay: as above; settings: 48 hours, 37° C., turbidity at 660 nm
Protocol: as §2

Streptococcus mutans [4] = assay: Minimum-Bactericidal-Concentrations (MBC), plating on blood agar; settings: kills at least 99.9% of initial inoculum
Porphyromonas gingivalis [5] = assay: as above; settings: kills at least 99.9% of initial inoculum
Protocol: as §2, with “hours. […] The Minimum-Bactericidal-Concentrations (MBC) were determined using the 96-well microtiter plate serial dilutions as described above for MIC studies. Serial dilutions of cultures in wells showing no visible growth were performed and 10 microliters of culture were plated in triplicate on blood agar plates. Viable colonies were scored after incubation of the plates for 48 hours at 37° C. For each test bacterium, the number of colony forming units/ml (CFU/ml) was determined in the initial inoculum. The MBC was defined as the lowest concentration of a test compound that killed at least 99.9% of the cells present in the initial inoculum.” for “hours.”

Fusobacterium nucleatum [6] = assay: as above; settings: kills at least 99.9% of initial inoculum
S. mutans [7] = assay: MIC for growth of S. mutans (comparative testing); settings: Streptococcus mutans, BHI with 0.5% sucrose, 48 h
Protocol: (§3) Further to the results described above, the effect of Magnolia Bark Extract on biofilm formation and removal was compared with different herbal and natural ingredients. Comparative testing was performed using green tea extract, Oolong tea extract, Licorice, and Magnolia Bark Extract. The comparative testing included determining the solubility in water, ethanol, water:ethanol mixtures and other solvents (for example, Tween in water), MIC for growth of S. mutans, MIC for formation of S. mutans biofilm in 96-well plates, and the effect on detachment of S. mutans biofilm. To further evaluate the effect on S. mutans biofilm formation, 96-well microtiter plates were used. Each well contained S. mutans (5×10^6 CFU/ml), and was serially diluted with test compounds and growth medium (brain heart infusion broth (BHI) with 0.5% sucrose). The controls included inoculated growth medium without test compounds. All plates were incubated at 37° C. under aerobic condition with growth estimated spectrophotometrically (660 nm) after 48 h using a microtiter plate reader. Then, the supernatant containing unattached cells was removed from each wells by aspiration, the attached biofilm mass was dissolved with 200 μl 1 N NaOH and the optical density was measured at 660 nm using the microtiter plate reader. Chlorhexidine (40 μg/ml) was used as a positive control.

S. mutans biofilm [8] = assay: MIC for formation of S. mutans biofilm in 96-well plates; settings: BHI with 0.5% sucrose, 48 h, attached biofilm OD 660 nm
Protocol: as §3

S. mutans biofilm [9] = assay: Effect on detachment of S. mutans biofilm; settings: pre-formed 48 h S. mutans biofilm, 30 min exposure
Protocol: Further to the results described above, the effect of Magnolia Bark Extract on biofilm formation and removal was compared with different herbal and natural ingredients. Comparative testing was performed using green tea extract, Oolong tea extract, Licorice, and Magnolia Bark Extract. The comparative testing included determining the solubility in water, ethanol, water:ethanol mixtures and other solvents (for example, Tween in water), MIC for growth of S. mutans, MIC for formation of S. mutans biofilm in 96-well plates, and the effect on detachment of S. mutans biofilm. To further evaluate the effect on S. mutans biofilm detachment, sterile 96-well microtiter plates were used where each well was inoculated with S. mutans (5×10^6 CFU/ml), growth medium (BHI supplemented with 0.5% sucrose), and incubated at 37° C. under aerobic condition for biofilm formation. After 48 hours, the non-attached supernatant was aspirated and serially diluted. […] After 30 min, the supernatant was aspirated from wells and the biofilm remaining after treatment was dissolved in 200 μl 1N NaOH, and quantitated at 660 nm using the plate reader. […] If detachment of the biofilm by action of the test compounds occurred, the spectrophotometric absorbance or optical density (OD) should show a decrease compared to the non-treated control.

[10] = test system: bacteria from freshly-collected stimulated whole saliva; assay: Mixed culture saliva biofilm on saliva-coated hydroxyapatite discs, timed exposure to actives
Protocol: Although useful to show the comparative effect of Magnolia Bark Extract on biofilm formation and MIC growth, the foregoing test procedure may not effectively mimic the in vivo exposure of a confectionary composition such as a pressed tablet to a developing plaque biofilm. In an in vivo situation, the active could be exposed to the plaque for a defined period of time at a set frequency (for example, for 5 minutes, three times a day). Therefore, a series of comparative experiments were conducted to mimic the in vivo use of potential active ingredients. To perform the tests the saliva compositions listed below in Tables 2 and 3 were prepared. A mixed culture system that utilizes the bacteria from freshly-collected stimulated whole saliva was used. Saliva cell pellets were used to inoculate saliva-coated hydroxyapatite (S-HA) discs. The discs were placed in 24-well cell culture plates and incubated for up to 3 days. Biofilms were exposed to actives on days 2 and 3 (starting at 18 hours), and quantified on day 4. The number of bacteria was determined by spectrophotometric absorbance or optical density (OD) at 600 nm. The five phases of the experiment were: pellicle formation; bacterial attachment; biofilm growth; exposure to actives; and bacterial enumeration. To form the pellicles, HA Discs were ultrasonically washed in deionized water and air-dried, then autoclaved. The discs were placed in a 24-well plate with 1 ml 50% sterile saliva (1 part sterile whole saliva: 1 part saliva buffer, filter sterilize after preparation) for 2 hours on slow agitation at room temperature. The saliva was suctioned and then the discs were transferred to fresh wells for bacterial attachment. To form the biofilms, the bacterial suspension was removed, and the discs were transferred to fresh wells. One ml of supplemented saliva medium was added and the plate was placed in the incubator for overnight incubation and for the duration of the experiment (up to 72 hours). A stock solution of 1% Magnolia Bark Extract in 60% ethanol was prepared. Magnolia Bark Extract samples were prepared having a concentration range of 125, 250, 500, and 1000 μg/ml (ppm) in a Phosphate-Buffered-Saline (PBS) solution, where the negative control was PBS and the positive control was CHX having a concentration of 0.12%. […] One ml quantities of active ingredients and controls were placed into fresh wells, and the discs were transferred to these wells for 5 minutes. The chlorhexidine control exposure was one minute, two times a day to mimic the standard mouth-rinse procedure. The exposure to active ingredient was carried out at 8:00 AM, 12:00 and 4:00 PM. After the timed exposure, the solution was removed and the discs washed twice with PBS and then transferred to fresh medium. For some experiments, the medium used during the day was TSB (Tryptic Soy Broth) with a 50 μl 40% sterile sucrose solution added to each well (to give a 2% sucrose solution). The medium was not replaced after the mid-day exposure. After overnight incubation (day 2), discs were exposed to controls and actives. On day 3 the biofilms were again exposed to tests and controls. On day 4 the discs were removed from the medium, the medium pH was measured to obtain an indication of metabolic activity, and the discs were placed into tubes with 2.5 ml PBS, vortexed for 20 sec, and then placed into the ultrasonic bath for another 20 sec. The suspension was transferred into cuvettes and the bacterial cell density determined by OD measurements at 600 nm. To evaluate the effect of Magnolia Bark Extract in combination with the surface active agent, sodium lauryl sulfate, five active ingredient solutions were prepared using the procedures described above. […] Also, the MBE solutions were prepared to have a concentration of 500 ppm. Sodium lauryl sulfate was added to two of the Magnolia Bark Extract solutions to obtain SLS concentrations of 0.05% and 0.1% in the Magnolia Bark Extract solutions. […]

S. mutans [11] = assay: MIC and fractional inhibitory index of combinations on S. mutans; settings: 24 hours at 37° C.
Protocol: as §1, with “hours. […] (1) where an FIC value of less than 1.0 is synergistic, an FIC between 1.0 and 2.0 is additive, and an FIC greater than 2.0 is antagonistic.” for “hours.”

[12] = CHX 0.12%, one minute, two times a day, day 4
[13] = repeat experiment with SLS, CHX 0.1% (1000 ppm)
[14] = repeat experiment with SLS, SLS 1000 ppm

Molecule: Cocamidopropyl Betaine
- germ-kill efficacy in words (incubated saliva): good germ-kill surface active agents

Molecule: Sodium Brasslate
- MIC (ppm) (incubated saliva): 500 ppm
- germ-kill efficacy in words (incubated saliva): moderate germ-kill efficacy

Molecule: [H]/N=C(\N/C(=N/[H])NCCCCCCNC(=N)NC(=N)Nc1ccc(Cl)cc1)Nc1ccc(Cl)cc1 [CHX, chlorhexidine]
- MIC (Fusobacterium nucleatum [1]): 1.25 µg/mL (≈ 2.47 µM)
- MIC (Porphyromonas gingivalis [2]): 1.25 µg/mL (≈ 2.47 µM)
- MIC (Streptococcus mutans [3]): 1.25 µg/mL (≈ 2.47 µM)
- MBC (Streptococcus mutans [4]): 1.25 µg/mL (≈ 2.47 µM)
- MBC (Porphyromonas gingivalis [5]): 1.25 µg/mL (≈ 2.47 µM)
- MBC (Fusobacterium nucleatum [6]): 1.25 µg/mL (≈ 2.47 µM)
- MIC (S. mutans [7]): 2.5 µg/mL (≈ 4.95 µM)
- MIC biofilm formation (S. mutans biofilm [8]): 2.5 µg/mL (≈ 4.95 µM)
- MIC biofilm detachment (S. mutans biofilm [9]): >10 µg/mL
- % OD reduction at 600 nm compared to PBS control [10, 12]: 84%
- pH of the medium (metabolic activity) [10, 12]: 8.8
- % OD reduction at 600 nm [10, 13]: 94%
- pH of the medium (metabolic activity) [10, 13]: 8.8

Molecule: Sucrose Distearate
- MIC (ppm) (incubated saliva): >500 ppm
- germ-kill efficacy in words (incubated saliva): weak or non germ-kill actives

Molecule: Sucrose Stearate
- MIC (ppm) (incubated saliva): >500 ppm
- germ-kill efficacy in words (incubated saliva): weak or non germ-kill actives

Molecule: Sodium Stearoyl Lactylate
- MIC (ppm) (incubated saliva): >3000 ppm
- germ-kill efficacy in words (incubated saliva): weak or non germ-kill actives

Molecule: CCCCCCCCCCCCOS(=O)(=O)[O-].[Na+] [SLS, sodium lauryl sulfate]
- % OD reduction at 600 nm [10, 14]: 61%
- pH of the medium (metabolic activity) [10, 14]: 5.7
- MIC (incubated saliva): 50 µg/mL
- germ-kill efficacy in words (incubated saliva): good germ-kill surface active agents
- MIC/ppm (S. mutans [11]): 100 ppm

Molecule: CCCCCCCCCCCC(=O)OCCOCCOCCOCCOCCOCCOCCOCCOCCOCCOCCOCCOCCOCCOCCOCCOCCOCCOCCOCCOCC(OCCOCCOCCOCCOCCOCCOCCOCCOCCOCCOCCOCCOCCOCCOCCOCCOCCOCCOCCOCCO)C1OCC(OCCOCCOCCOCCOCCOCCOCCOCCOCCOCCOCCOCCOCCOCCOCCOCCOCCOCCOCCOCCO)C1OCCOCCOCCOCCOCCOCCOCCOCCOCCOCCOCCOCCOCCOCCOCCOCCOCCOCCOCCOCCO (stereo not shown) [Tween 20, Polysorbate 20]
- MIC (incubated saliva): > 1000 µg/mL
- germ-kill efficacy in words (incubated saliva): weak or non germ-kill actives

Molecule: N=C(NCCCCCCNC(=N)NC(=N)Nc1ccc(Cl)cc1)NC(=N)Nc1ccc(Cl)cc1.O=C(O)[C@H](O)[C@@H](O)[C@H](O)[C@H](O)CO.O=C(O)[C@H](O)[C@@H](O)[C@H](O)[C@H](O)CO [Chlorhexidine gluconate, reference compound]
- MIC (ppm) (incubated saliva): 2 ppm
- MIC/ppm (S. mutans [11]): 2 ppm
